Source: ChEMBL document CHEMBL6127053, “Discovery of orally bioavailable phosphonate prodrugs of potent ENPP1 inhibitors for cancer treatment” (Eur J Med Chem, 2024)
In brackets after ≈: the same amount, converted by molar mass.

Legend:
Cytochrome P450 2C9 = Cytochrome P450 2C9 (Homo sapiens, UniProt P11712); assay: Inhibition of CYP2C9 (unknown origin); format: ADME
Cytochrome P450 2C19 = Cytochrome P450 2C19 (Homo sapiens, UniProt P33261); assay: Inhibition of CYP2C19 (unknown origin); format: ADME
Cytochrome P450 2C19, sequence (P33261 whole entry): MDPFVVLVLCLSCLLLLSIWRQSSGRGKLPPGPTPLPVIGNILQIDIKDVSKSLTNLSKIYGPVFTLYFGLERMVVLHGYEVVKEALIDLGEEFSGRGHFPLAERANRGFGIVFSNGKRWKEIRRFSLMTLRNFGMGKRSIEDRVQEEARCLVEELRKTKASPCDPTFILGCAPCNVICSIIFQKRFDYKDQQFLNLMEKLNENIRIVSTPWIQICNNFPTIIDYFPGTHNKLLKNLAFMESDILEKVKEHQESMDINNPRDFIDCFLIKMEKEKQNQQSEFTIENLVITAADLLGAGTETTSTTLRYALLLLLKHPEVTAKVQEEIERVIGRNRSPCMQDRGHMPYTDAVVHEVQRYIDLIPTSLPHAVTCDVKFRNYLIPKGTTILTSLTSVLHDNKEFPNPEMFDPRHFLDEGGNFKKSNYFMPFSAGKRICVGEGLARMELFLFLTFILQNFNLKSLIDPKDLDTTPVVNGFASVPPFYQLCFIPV

Cytochrome P450 2D6 = Cytochrome P450 2D6 (Homo sapiens, UniProt P10635); assay: Inhibition of CYP2D6 (unknown origin); format: ADME
Cytochrome P450 2D6, sequence (P10635 whole entry): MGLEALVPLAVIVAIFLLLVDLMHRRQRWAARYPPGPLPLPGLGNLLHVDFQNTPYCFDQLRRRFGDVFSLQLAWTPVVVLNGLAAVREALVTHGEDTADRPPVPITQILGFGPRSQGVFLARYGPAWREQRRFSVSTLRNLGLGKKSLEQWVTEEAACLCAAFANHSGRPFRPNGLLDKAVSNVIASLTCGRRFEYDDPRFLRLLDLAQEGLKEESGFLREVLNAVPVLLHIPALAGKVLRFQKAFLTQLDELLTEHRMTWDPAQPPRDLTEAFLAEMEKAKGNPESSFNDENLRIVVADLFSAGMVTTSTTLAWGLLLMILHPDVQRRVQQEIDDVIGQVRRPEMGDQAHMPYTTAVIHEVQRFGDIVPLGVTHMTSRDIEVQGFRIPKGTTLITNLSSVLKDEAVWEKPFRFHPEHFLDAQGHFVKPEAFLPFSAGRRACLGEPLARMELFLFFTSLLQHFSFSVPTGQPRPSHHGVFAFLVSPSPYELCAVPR

Cytochrome P450 1A2 = molecular target: T1, Cytochrome P450 1A2 (Homo sapiens, UniProt P05177); assay: Inhibition of CYP1A2 (unknown origin); format: ADME
T1 sequence (P05177 whole entry): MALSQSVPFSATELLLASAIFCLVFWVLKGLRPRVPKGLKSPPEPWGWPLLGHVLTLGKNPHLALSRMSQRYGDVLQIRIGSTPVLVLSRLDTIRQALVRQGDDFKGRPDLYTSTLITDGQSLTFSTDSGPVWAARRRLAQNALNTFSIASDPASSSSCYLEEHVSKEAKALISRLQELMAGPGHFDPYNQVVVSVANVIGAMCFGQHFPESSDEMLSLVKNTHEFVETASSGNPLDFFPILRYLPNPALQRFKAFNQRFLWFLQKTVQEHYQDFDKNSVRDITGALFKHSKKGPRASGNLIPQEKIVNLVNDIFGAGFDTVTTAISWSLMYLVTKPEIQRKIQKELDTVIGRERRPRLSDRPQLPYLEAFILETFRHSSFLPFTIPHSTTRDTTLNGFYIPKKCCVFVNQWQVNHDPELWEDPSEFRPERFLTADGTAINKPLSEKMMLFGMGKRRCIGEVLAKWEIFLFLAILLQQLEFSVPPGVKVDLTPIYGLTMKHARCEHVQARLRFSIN

Cytochrome P450 3A4 = Cytochrome P450 3A4 (Homo sapiens, UniProt P08684); assay: Inhibition of CYP3A4 (unknown origin); format: ADME
Cytochrome P450 3A4, sequence (P08684 whole entry): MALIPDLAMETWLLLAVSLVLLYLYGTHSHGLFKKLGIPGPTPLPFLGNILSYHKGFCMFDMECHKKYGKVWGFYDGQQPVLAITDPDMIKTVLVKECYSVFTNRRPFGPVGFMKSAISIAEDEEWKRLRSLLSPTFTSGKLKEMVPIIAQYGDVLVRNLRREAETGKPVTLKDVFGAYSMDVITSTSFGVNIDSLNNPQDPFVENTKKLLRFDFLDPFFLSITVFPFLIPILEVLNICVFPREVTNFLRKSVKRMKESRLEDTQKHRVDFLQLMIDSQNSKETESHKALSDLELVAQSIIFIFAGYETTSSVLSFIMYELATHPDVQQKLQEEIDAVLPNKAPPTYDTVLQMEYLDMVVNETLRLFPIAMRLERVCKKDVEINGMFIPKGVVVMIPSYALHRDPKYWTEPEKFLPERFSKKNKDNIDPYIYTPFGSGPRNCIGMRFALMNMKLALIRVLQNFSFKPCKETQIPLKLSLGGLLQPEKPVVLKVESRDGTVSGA

[1] = molecular target: Voltage-gated inwardly rectifying potassium channel KCNH2 (Homo sapiens, UniProt Q12809); assay: Inhibition of hERG; format: toxicity
Voltage-gated inwardly rectifying potassium channel KCNH2, sequence (Q12809 whole entry): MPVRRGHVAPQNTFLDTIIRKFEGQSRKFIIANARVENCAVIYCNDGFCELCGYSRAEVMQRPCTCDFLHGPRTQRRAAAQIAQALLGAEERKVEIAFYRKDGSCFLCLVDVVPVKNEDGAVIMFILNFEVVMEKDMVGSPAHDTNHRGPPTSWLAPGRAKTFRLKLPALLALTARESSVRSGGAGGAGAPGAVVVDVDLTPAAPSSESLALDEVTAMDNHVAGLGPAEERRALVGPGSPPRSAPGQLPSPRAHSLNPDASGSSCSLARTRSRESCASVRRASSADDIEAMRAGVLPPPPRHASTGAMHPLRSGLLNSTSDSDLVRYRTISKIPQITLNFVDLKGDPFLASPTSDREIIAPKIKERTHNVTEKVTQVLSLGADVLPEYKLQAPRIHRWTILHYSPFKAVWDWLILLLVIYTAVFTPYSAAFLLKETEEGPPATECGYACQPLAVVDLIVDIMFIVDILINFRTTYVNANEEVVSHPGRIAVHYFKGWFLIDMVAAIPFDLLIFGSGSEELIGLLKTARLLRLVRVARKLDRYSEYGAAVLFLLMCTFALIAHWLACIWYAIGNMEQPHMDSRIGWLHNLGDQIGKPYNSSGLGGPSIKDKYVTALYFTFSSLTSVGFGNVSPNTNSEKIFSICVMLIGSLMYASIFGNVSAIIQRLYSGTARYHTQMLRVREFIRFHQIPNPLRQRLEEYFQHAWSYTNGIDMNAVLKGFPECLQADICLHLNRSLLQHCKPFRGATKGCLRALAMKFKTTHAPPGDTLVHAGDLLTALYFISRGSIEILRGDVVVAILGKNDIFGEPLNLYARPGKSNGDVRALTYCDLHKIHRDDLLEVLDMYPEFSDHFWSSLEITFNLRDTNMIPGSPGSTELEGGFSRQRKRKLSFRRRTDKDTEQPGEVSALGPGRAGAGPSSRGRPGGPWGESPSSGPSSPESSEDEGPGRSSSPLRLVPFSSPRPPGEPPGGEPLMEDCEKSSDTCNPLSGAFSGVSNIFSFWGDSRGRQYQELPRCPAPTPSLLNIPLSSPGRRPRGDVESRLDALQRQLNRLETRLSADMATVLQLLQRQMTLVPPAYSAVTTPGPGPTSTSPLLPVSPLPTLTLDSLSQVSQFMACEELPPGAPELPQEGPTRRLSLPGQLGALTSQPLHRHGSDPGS

[2] = Prodrug conversion in mouse assessed as half-life of (4-((7-Methoxy-1,8-naphthyridin-4yl)oxy)benzyl)phosphonic acid metabolite at 5 mg/kg, po measured for 24 hrs by LC-MS/MS analysis; format: ADME, organism-based; conditions: in vivo
[3] = Prodrug conversion in mouse assessed as AUC(0 to t) of (4-((7-Methoxy-1,8-naphthyridin-4yl)oxy)benzyl)phosphonic acid metabolite at 5 mg/kg, po measured for 24 hrs by LC-MS/MS analysis; format: ADME, organism-based; conditions: in vivo
[4] = Prodrug conversion in mouse assessed as oral bioavailability of (4-((7-Methoxy-1,8-naphthyridin-4yl)oxy)benzyl)phosphonic acid metabolite at 5 mg/kg measured for 24 hrs by LC-MS/MS analysis; format: ADME, organism-based; conditions: in vivo
[5] = Prodrug conversion in rat assessed as half-life of (4-((7-Methoxy-1,8-naphthyridin-4yl)oxy)benzyl)phosphonic acid metabolite at 5 mg/kg, po measured for 24 hrs by LC-MS/MS analysis; format: ADME, organism-based; conditions: in vivo
[6] = Prodrug conversion in rat assessed as AUC (0 to t) of (4-((7-Methoxy-1,8-naphthyridin-4yl)oxy)benzyl)phosphonic acid metabolite at 5 mg/kg, po measured for 24 hrs by LC-MS/MS analysis; format: ADME, organism-based; conditions: in vivo
[7] = Prodrug conversion in rat assessed as oral bioavailability of (4-((7-Methoxy-1,8-naphthyridin-4yl)oxy)benzyl)phosphonic acid metabolite at 5 mg/kg measured for 24 hrs by LC-MS/MS analysis; format: ADME, organism-based; conditions: in vivo
[8] = Prodrug conversion in dog assessed as half-life of (4-((7-Methoxy-1,8-naphthyridin-4yl)oxy)benzyl)phosphonic acid metabolite at 2 mg/kg, po measured for 24 hrs by LC-MS/MS analysis; format: ADME, organism-based, Canis lupus familiaris; conditions: in vivo
[9] = Prodrug conversion in dog assessed as AUC(0 to t) of (4-((7-Methoxy-1,8-naphthyridin-4yl)oxy)benzyl)phosphonic acid metabolite at 2 mg/kg, po measured for 24 hrs by LC-MS/MS analysis; format: ADME, organism-based, Canis lupus familiaris; conditions: in vivo
[10] = Prodrug conversion in dog assessed as oral bioavailability of (4-((7-Methoxy-1,8-naphthyridin-4yl)oxy)benzyl)phosphonic acid metabolite at 2 mg/kg measured for 24 hrs by LC-MS/MS analysis; format: ADME, organism-based, Canis lupus familiaris; conditions: in vivo
Panc02 [11] = assay: Antitumor activity against mouse Panc02 cells implanted in C57BL/6 mouse assessed as inhibition of tumor growth at 200 mg/kg, po bid for 35 days and measured on day 35; format: functional; conditions: Panc02, 840 h, time 35 day, read-out: TGI
Panc02 [12] = assay: Synergistic antitumor activity against mouse Panc02 cells implanted in C57BL/6 mouse assessed as inhibition of tumor growth at 200 mg/kg, po bid for 35 days and irradiated with 5Gy radiation on days 1,8,15,22,29 and measured on day 35 (reference value: 26%); format: functional; conditions: Panc02, light or radiation study, 840 h, time 35 day, read-out: TGI
Panc02 [13] = assay: Synergistic antitumor activity against mouse Panc02 cells implanted in C57BL/6 mouse assessed as inhibition of tumor growth by measuring combination ratio at 200 mg/kg, po bid for 35 days and irradiated with 5Gy radiation on days 1,8,15,22,29 and measured on day 35; format: functional; conditions: time 35 day
[14] = Toxicity in C57BL/6 mouse implanted with mouse Panc02 cells assessed as effect on body weight at 200 mg/kg, po bid for 35 days; format: organism-based; conditions: in vivo, 840 h, time 35 day
[15] = Prodrug conversion in C57BL/6 mouse implanted with mouse Panc02 cells assessed as time during which unbound plasma concentration of (4-((7-Methoxy-1,8-naphthyridin-4yl)oxy)benzyl)phosphonic acid metabolite exceeds IC90 for inhibition of ENPP1 in mouse EL4 cells at 200 mg/kg, po bid for 35 days; format: ADME, organism-based; conditions: in vivo, 840 h, time 35 day
physchem = conditions: aqueous, pH 7.4
Description: Aqueous solubility of the compound at pH 7.4

[16] = molecular target: T2, Ectonucleotide pyrophosphatase/phosphodiesterase family member 1 (Homo sapiens, UniProt P22413); assay: Inhibition of ENPP1 (unknown origin) at pH 8.8
T2 sequence (P22413 whole entry): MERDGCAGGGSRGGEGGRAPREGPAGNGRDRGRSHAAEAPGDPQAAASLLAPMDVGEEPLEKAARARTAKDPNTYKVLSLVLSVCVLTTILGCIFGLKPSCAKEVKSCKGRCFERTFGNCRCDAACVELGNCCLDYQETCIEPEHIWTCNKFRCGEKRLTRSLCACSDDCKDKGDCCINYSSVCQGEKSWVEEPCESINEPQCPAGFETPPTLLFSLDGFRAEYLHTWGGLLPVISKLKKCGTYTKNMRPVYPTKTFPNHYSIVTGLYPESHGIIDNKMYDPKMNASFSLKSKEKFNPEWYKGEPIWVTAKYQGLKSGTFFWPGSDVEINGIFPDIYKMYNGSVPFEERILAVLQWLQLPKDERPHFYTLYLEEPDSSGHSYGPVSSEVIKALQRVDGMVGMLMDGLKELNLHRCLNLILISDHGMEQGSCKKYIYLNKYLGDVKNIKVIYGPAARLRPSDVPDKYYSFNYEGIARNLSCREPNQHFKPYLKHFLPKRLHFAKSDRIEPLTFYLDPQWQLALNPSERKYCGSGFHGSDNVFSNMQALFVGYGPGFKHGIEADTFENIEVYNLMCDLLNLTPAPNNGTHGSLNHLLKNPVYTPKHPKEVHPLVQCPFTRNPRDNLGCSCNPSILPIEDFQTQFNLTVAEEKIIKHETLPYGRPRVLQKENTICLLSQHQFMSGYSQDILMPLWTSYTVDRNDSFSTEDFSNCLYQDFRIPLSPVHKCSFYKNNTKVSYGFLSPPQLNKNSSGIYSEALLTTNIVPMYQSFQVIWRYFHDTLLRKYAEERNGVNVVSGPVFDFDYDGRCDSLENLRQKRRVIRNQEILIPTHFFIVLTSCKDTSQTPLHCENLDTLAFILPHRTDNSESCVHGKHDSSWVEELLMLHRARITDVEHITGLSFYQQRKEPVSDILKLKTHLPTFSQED

[17] = molecular target: T2, Ectonucleotide pyrophosphatase/phosphodiesterase family member 1; assay: Inhibition of ECD-His-tagged human recombinant ENPP1 using 2',3'-cGAMP as substrate preincubated with enzyme for 15 mins followed by substrate addition and incubated in R1 reaction buffer for 1 hr and treated in R2 reaction buffer for 1 hr measured at pH 7.5 by luminescence based analysis
[18] = molecular target: T2, Ectonucleotide pyrophosphatase/phosphodiesterase family member 1; assay: Inhibition of ENPP1 (unknown origin) at pH 7.5
[19] = molecular target: T3, Ectonucleotide pyrophosphatase/phosphodiesterase family member 1 (Mus musculus, UniProt P06802)
T3 sequence (P06802 whole entry): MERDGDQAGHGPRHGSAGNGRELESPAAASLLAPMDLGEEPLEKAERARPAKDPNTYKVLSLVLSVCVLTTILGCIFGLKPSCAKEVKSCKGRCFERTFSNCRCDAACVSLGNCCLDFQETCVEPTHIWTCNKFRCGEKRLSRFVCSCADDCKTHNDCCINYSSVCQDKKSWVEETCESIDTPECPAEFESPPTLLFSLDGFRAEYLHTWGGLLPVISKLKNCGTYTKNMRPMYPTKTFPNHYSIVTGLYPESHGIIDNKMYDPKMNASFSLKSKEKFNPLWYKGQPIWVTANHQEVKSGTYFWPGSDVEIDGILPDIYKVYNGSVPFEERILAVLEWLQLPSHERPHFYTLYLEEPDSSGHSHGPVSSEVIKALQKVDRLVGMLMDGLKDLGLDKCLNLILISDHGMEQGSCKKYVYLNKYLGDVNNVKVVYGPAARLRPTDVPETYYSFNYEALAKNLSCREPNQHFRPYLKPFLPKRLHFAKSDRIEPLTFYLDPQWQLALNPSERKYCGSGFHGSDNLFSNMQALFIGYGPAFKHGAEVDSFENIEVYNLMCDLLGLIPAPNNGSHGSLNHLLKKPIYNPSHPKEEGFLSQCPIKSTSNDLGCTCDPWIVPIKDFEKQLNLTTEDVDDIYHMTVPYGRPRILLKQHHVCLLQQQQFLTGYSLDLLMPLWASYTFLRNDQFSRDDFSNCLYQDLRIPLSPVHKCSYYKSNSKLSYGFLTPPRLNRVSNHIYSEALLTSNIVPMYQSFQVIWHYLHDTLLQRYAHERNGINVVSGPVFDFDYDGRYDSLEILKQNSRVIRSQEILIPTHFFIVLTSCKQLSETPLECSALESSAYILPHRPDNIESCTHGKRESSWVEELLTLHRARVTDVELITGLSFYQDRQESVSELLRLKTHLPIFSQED

[20] = molecular target: T2, Ectonucleotide pyrophosphatase/phosphodiesterase family member 1; assay: Inhibition of human recombinant ENPP1 at pH 8

Cytochrome P450 2C9, sequence (P11712 whole entry): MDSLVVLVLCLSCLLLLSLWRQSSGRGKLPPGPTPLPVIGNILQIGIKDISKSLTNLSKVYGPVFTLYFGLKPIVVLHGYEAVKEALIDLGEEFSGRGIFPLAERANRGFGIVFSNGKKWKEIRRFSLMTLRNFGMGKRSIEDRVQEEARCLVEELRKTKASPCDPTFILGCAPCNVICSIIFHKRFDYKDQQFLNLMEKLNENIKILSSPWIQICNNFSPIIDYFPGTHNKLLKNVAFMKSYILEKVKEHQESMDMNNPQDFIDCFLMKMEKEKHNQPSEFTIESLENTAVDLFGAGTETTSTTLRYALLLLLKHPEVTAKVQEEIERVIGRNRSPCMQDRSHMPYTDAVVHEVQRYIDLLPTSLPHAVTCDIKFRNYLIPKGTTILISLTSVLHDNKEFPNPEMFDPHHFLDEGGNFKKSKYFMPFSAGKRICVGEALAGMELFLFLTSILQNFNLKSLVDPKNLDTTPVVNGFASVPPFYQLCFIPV

SMILES | IC50 (Cytochrome P450 2C9) | IC50 (Cytochrome P450 2C19) | IC50 (Cytochrome P450 2D6) | IC50 (Cytochrome P450 1A2) | IC50 (Cytochrome P450 3A4) | further results
COc1ccc2c(Oc3ccc(CP(=O)(OCOC(=O)C(C)(C)C)OCOC(=O)C(C)(C)C)cc3)ccnc2n1 | > 50 µM | > 50 µM | > 50 µM | > 50 µM | > 50 µM | IC50 [1]: > 30 µM; t1/2 [2]: 4.2 h; AUCt [3]: 937 ng·h/mL; F [4]: 17%; t1/2 [5]: 4.22 h; AUCt [6]: 5984 ng·h/mL; F [7]: 39.8%; t1/2 [8]: 1.8 h; AUCt [9]: 793 ng·h/mL; F [10]: 21.1%; inhibition in vivo at 200 mg/kg (Panc02 [11]): 11%; inhibition in vivo at 200 mg/kg (Panc02 [12]): 51%; Ratio (Panc02 [13]): 1.2; Activity [14]: Non-Toxic; T>IC90 [15]: 18 h; solubility (physchem): 20.6 µM (≈ 11.8 µg/mL)
NC(=O)c1ccc2c(ncn2Cc2ccc(P(=O)(O)O)cc2)n1 |  |  |  |  |  | Ki [16]: < 0.01 µM
COc1cccc2c(N3CCC(CCP(=O)(O)O)CC3)ncnc12 |  |  |  |  |  | IC50 [17]: 0.0062 µM; Ki [18]: < 0.002 µM; IC50 [19]: 0.0022 µM
COc1ccc2c(Oc3ccc(NS(N)(=O)=O)cc3)ccnc2c1 |  |  |  |  |  | Ki [20]: < 0.1 µM
COc1ccc2c(Oc3ccc(C4(C(=O)NO)CCCC4)cc3)ccnc2n1 | 9.2 µM | 8.2 µM |  |  |  | 

Now from value to molecule, other results behind:

IC50 (Cytochrome P450 2C9) | IC50 (Cytochrome P450 2C19) | IC50 (Cytochrome P450 2D6) | IC50 (Cytochrome P450 1A2) | IC50 (Cytochrome P450 3A4) | SMILES | further results
2.3 µM | 4 µM | 4.8 µM | 8.1 µM | 10.3 µM | COc1ccc2c(Oc3ccc(CC(=O)NO)cc3)ccnc2c1 | 
> 50 µM | > 50 µM | > 50 µM | > 50 µM | > 50 µM | COc1ccc2c(Oc3ccc(CP(=O)(O)O)cc3)ccnc2n1 | IC50 [1]: > 30 µM
> 50 µM | > 50 µM | > 50 µM | > 50 µM | > 50 µM | COc1ccc2c(Oc3ccc(CC(=O)NO)cc3)ccnc2n1 | 
